pIC50, pKi: −log10 of the molar value.
Legend:
[1] = Clearance in Sprague-Dawley rat at 2.5 mg/kg, iv; type: ADME, organism-based; design: dose 2.5 mg/kg, route intravenous; conditions: in vivo
[2] = molecular target: T1, Gonadotropin-releasing hormone receptor (Homo sapiens, UniProt P30968); test: Antagonist activity at human GnRH receptor expressed in RBL cells assessed as inhibition of GnRH-stimulated [3H]inositol phosphate hydrolysis by whole cell assay; type: functional, cell-based
T1 sequence (P30968 whole entry): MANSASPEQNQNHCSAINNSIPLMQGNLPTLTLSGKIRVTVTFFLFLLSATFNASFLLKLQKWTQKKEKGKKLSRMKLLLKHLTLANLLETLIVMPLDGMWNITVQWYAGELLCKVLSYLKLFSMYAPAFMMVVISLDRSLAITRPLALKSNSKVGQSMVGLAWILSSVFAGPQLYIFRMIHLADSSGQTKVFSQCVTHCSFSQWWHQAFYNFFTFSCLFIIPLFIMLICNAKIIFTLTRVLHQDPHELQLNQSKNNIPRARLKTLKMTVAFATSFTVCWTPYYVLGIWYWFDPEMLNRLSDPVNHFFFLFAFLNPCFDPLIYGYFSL

[3] = molecular target: T1, Gonadotropin-releasing hormone receptor; test: Displacement of [125I]tyr5,D-Leu6,NMeLeu7-GnRH from human cloned GnRH receptor expressed in RBL cells; type: cell-based
[4] = Half life in Sprague-Dawley rat at 2.5 mg/kg, iv; type: ADME, organism-based; design: dose 2.5 mg/kg, route intravenous; conditions: in vivo
[5] = Permeability from apical to basolateral side of human Caco-2 cell membrane; type: ADME, cell-based
[6] = molecular target: T1, Gonadotropin-releasing hormone receptor; test: Displacement of [125I]Pro-N-Et-GnRH from human cloned GnRH receptor expressed in HEK cells; type: cell-based, HEK293
[7] = Oral bioavailability in Sprague-Dawley rat at 10 mg/kg; type: ADME, organism-based; conditions: in vivo
Cytochrome P450 3A4 = Cytochrome P450 3A4 (Homo sapiens, UniProt P08684); test: Inhibition of recombinant CYP3A4 by microtiter plate-based fluorimetric assay; type: ADME
Sequence of Cytochrome P450 3A4 (P08684 whole entry): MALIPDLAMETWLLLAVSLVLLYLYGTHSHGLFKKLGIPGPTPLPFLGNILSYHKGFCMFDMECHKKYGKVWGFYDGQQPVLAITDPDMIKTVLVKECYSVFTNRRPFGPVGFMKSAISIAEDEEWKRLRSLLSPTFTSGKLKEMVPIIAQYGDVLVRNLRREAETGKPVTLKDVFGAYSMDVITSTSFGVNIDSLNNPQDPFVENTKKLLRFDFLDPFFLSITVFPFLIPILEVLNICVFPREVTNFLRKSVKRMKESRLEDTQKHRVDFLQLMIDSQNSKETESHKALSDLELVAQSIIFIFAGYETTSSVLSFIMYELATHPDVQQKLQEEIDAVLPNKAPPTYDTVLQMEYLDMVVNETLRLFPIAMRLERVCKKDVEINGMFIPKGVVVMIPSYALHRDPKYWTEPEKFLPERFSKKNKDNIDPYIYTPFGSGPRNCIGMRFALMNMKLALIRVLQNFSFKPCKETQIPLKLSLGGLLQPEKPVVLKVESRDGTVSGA

CYP3A4 = CYP3A4 (Homo sapiens, UniProt P08684); test: Inhibition of recombinant CYP3A4 at 200 uM by microtiter plate-based fluorimetric assay; type: ADME
Sequence of CYP3A4 (P08684 whole entry): as above

Row | pKi [3] | pKi [6] | pIC50 (Cytochrome P450 3A4) | SMILES | other results
1 | 9.00 | 8.92 | – | Cc1c(-c2cccc(OCCCCC(=O)O)c2F)c(=O)n(C[C@H](N)c2ccccc2)c(=O)n1Cc1c(F)cccc1C(F)(F)F | clearance [1]: 14 mL/min/kg; pIC50 [2]: 8.59; half-life [4]: 6.6 h; Papp A→B [5]: 0.1 ×10⁻⁶ cm/s; bioavailability [7]: 6.6%
2 | 7.01 | – | – | CN[C@@H](Cn1c(=O)c(-c2cccc(OCCN(C)CC(=O)O)c2F)c(C)n(Cc2c(F)cccc2C(F)(F)F)c1=O)c1ccccc1 | –
3 | – | 7.47 | 4.44 | N[C@@H](Cn1c(=O)c(-c2cccc(OCCCCC(=O)O)c2F)cn(Cc2c(F)cccc2C(F)(F)F)c1=O)c1ccccc1 | –
4 | 7.57 | – | – | CN[C@@H](Cn1c(=O)c(-c2cccc(OCCNCC(=O)O)c2F)c(C)n(Cc2c(F)cccc2C(F)(F)F)c1=O)c1ccccc1 | –
5 | 6.81 | – | 4.48 | CN[C@@H](Cn1c(=O)c(-c2cccc(OCCCNCC(=O)O)c2F)c(C)n(Cc2c(F)cccc2C(F)(F)F)c1=O)c1ccccc1 | –
6 | 7.42 | – | 4.66 | CN[C@@H](Cn1c(=O)c(-c2cccc(OCCCOCC(=O)O)c2F)c(C)n(Cc2c(F)cccc2C(F)(F)F)c1=O)c1ccccc1 | –
7 | – | 7.48 | 4.60 | N[C@@H](Cn1c(=O)c(-c2cccc(OCCCCCC(=O)O)c2F)cn(Cc2c(F)cccc2C(F)(F)F)c1=O)c1ccccc1 | –
8 | – | 8.39 | 4.66 | Cc1c(-c2cccc(OCCCCC(=O)O)c2)c(=O)n(C[C@H](N)c2ccccc2)c(=O)n1Cc1c(F)cccc1C(F)(F)F | clearance [1]: 7.5 mL/min/kg; pIC50 [2]: 7.59; half-life [4]: 10 h; Papp A→B [5]: 0.1 ×10⁻⁶ cm/s; bioavailability [7]: 1.1%
9 | 8.96 | 8.68 | – | Cc1c(-c2cccc(OCCCCCC(=O)O)c2)c(=O)n(C[C@H](N)c2ccccc2)c(=O)n1Cc1c(F)cccc1C(F)(F)F | clearance [1]: 36 mL/min/kg; pIC50 [2]: 8.55; half-life [4]: 4.9 h; bioavailability [7]: 4.8%
10 | 7.54 | – | 4.66 | CN[C@@H](Cn1c(=O)c(-c2cccc(OCCC(C)(C)CC(=O)O)c2F)c(C)n(Cc2c(F)cccc2C(F)(F)F)c1=O)c1ccccc1 | –
11 | 8.92 | 8.89 | 5.09 | Cc1c(-c2cccc(OCCCCCC(=O)O)c2F)c(=O)n(C[C@H](N)c2ccccc2)c(=O)n1Cc1c(F)cccc1C(F)(F)F | clearance [1]: 21 mL/min/kg; pIC50 [2]: 9.22; half-life [4]: 2.9 h; bioavailability [7]: 3.7%
12 | 7.46 | – | – | CN[C@@H](Cn1c(=O)c(-c2cccc(OCCCN(C)CC(=O)O)c2F)c(C)n(Cc2c(F)cccc2C(F)(F)F)c1=O)c1ccccc1 | –
13 | 8.12 | – | – | Cc1c(-c2cccc(OCCCC(=O)O)c2)c(=O)n(C[C@H](N)c2ccccc2)c(=O)n1Cc1c(F)cccc1C(F)(F)F | pIC50 [2]: 7.64
14 | 8.00 | – | – | Cc1c(-c2cccc(OCCC(=O)O)c2F)c(=O)n(C[C@H](N)c2ccccc2)c(=O)n1Cc1c(F)cccc1C(F)(F)F | –
15 | 8.33 | – | – | Cc1c(-c2cccc(OCCCC(=O)O)c2F)c(=O)n(C[C@H](N)c2ccccc2)c(=O)n1Cc1c(F)cccc1C(F)(F)F | inhibition at 200 µM (CYP3A4): 21%
16 | 7.28 | – | – | Cc1c(-c2cccc(OCC(=O)O)c2F)c(=O)n(C[C@H](N)c2ccccc2)c(=O)n1Cc1c(F)cccc1C(F)(F)F | inhibition at 200 µM (CYP3A4): 16%
17 | – | 7.82 | 4.38 | Cc1c(-c2cccc(OCCCCC(=O)O)c2F)c(=O)n(C[C@@H](c2ccccc2)N(C)C)c(=O)n1Cc1c(F)cccc1C(F)(F)F | Papp A→B [5]: 17 ×10⁻⁶ cm/s
18 | – | 8.92 | 4.89 | CN[C@@H](Cn1c(=O)c(-c2cccc(OCCCCC(=O)O)c2F)c(C)n(Cc2c(F)cccc2C(F)(F)F)c1=O)c1ccccc1 | clearance [1]: 50 mL/min/kg; half-life [4]: 5.1 h; Papp A→B [5]: 1.2 ×10⁻⁶ cm/s; bioavailability [7]: 13%
19 | 8.03 | – | 5.00 | CN[C@@H](Cn1c(=O)c(-c2cccc(OCCOCC(=O)O)c2F)c(C)n(Cc2c(F)cccc2C(F)(F)F)c1=O)c1ccccc1 | –

Reference: ChEMBL document CHEMBL1156583, “Zwitterionic uracil derivatives as potent GnRH receptor antagonists with improved pharmaceutical properties” (Bioorg Med Chem Lett, 2008)
